The record followed here is patent publication US20250340557A1, “PYRIMIDINE DERIVATIVE” (ASKA PHARMACEUTICAL CO., LTD., priority 2022, published 2025).

SMILES strings stand for the structures.

The target in one experiment is T1, human mPGES-1 (Homo sapiens, UniProt O14684).
T1 construct: made in house; host or cells: COS-1 cells (transient transfection; microsomal fraction used as enzyme)
T1 sequence (O14684 1-152): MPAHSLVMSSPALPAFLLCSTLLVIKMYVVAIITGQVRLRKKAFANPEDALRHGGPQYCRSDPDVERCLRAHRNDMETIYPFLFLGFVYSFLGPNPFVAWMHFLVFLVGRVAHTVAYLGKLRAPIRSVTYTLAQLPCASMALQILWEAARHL
Description: Test for mPGES-1 inhibitory activity (microsomal enzyme, PGE2 EIA). The format is biochemical. Particulars: microsomes from COS-1 cells transfected with human mPGES-1 cDNA; substrate PGH2 1 μM; 4° C., 4 minutes; PGE2 measured by EIA; read-out: h mPGES1 IC50. The procedure:
Test Example 1: Test for mPGES-1 Inhibitory Activity
Microsomes were prepared from COS-1 cells transiently transfected with a plasmid containing human mPGES-1 cDNA, and used as mPGES-1 enzyme. The mPGES-1 enzyme was diluted with a sodium phosphate buffer (pH 7.2) containing reduced glutathione (2.5 mM) and EDTA (1 mM), DMSO or a DMSO solution of a test compound (final concentration of DMSO was 2%) was added to the enzyme, and the mixture was preincubated at 4° C. for 15 minutes. Then, PGH2 (Prostaglandin H2) as the substrate was added at a final concentration of 1 μM to start the enzymatic reaction, and after incubation at 4° C. for 4 minutes, a solution of ferric chloride (25 mM) and citric acid (50 mM) was added to terminate the enzymatic reaction. Generated PGE2 (Prostaglandin E2) was measured by using Prostaglandin E2 Express EIA Kit (Cayman Chemical). IC50 values were determined by using a standard method.
By IC50 is commonly meant the concentration that gives 50% inhibition. Take `O=C(NCc1ccc(C(F)(F)F)c(-c2nc(C(F)(F)F)cc(=O)[nH]2)c1F)C1CCN(c2ccc(Cl)cc2F)CC1` [Example 70, 1-(4-chloro-2-fluorophenyl)-N-{2-fluoro-3-[6-oxo-4-(trifluoromethyl)-1,6-dihydropyrimidin-2-yl]-4-(trifluoromethyl)benzyl}piperidine-4-carboxamide]: the IC50 is 10 nM. The same measure, in the same setting: then `O=C(NCc1ccc(C(F)(F)F)c(-c2nc(C(F)F)cc(=O)[nH]2)c1F)C1CCN(c2ccc(Cl)c(Cl)c2)CC1` [Example 84, 1-(3,4-dichlorophenyl)-N-{3-[4-(difluoromethyl)-6-oxo-1,6-dihydropyrimidin-2-yl]-2-fluoro-4-(trifluoromethyl)benzyl}piperidine-4-carboxamide], with 5.2 nM; and `O=C(NCc1ccc(C(F)(F)F)c(-c2nc(C(F)(F)F)cc(=O)[nH]2)c1F)C1CCN(c2ncc(C(F)(F)F)cc2F)CC1` [Example 39, N-{2-fluoro-3-[6-oxo-4-(trifluoromethyl)-1,6-dihydropyrimidin-2-yl]-4-(trifluoromethyl)benzyl}-1-[3-fluoro-5-(trifluoromethyl)pyridin-2-yl]piperidine-4-carboxamide], with less than 1 nM; and `O=C(NCc1ccc(C(F)(F)F)c(-c2nc(C(F)(F)F)cc(=O)[nH]2)c1F)C1CCN(c2cccc(C(F)F)c2)CC1` [Example 65, 1-[3-(difluoromethyl)phenyl]-N-{2-fluoro-3-[6-oxo-4-(trifluoromethyl)-1,6-dihydropyrimidin-2-yl]-4-(trifluoromethyl)benzyl}piperidine-4-carboxamide], with less than 1 nM. Same read-out and setting: then `Cc1cccc2ccc(N3CCC(C(=O)NCc4ccc(C(F)(F)F)c(-c5nc(C(F)F)cc(=O)[nH]5)c4F)CC3)nc12` [Example 12, N-{3-[4-(difluoromethyl)-6-oxo-1,6-dihydropyrimidin-2-yl]-2-fluoro-4-(trifluoromethyl)benzyl}-1-(8-methylquinolin-2-yl)piperidine-4-carboxamide], with 2.1 nM. Still for that read-out and setting: to `Cc1nc(-c2c(C(F)(F)F)ccc(CNC(=O)[C@H]3CC[C@H](OCc4cccc(Cl)c4)CC3)c2F)[nH]c(=O)c1F` [Example 123, trans-4-[(3-chlorobenzyl)oxy]-N-[2-fluoro-3-(5-fluoro-4-methyl-6-oxo-1,6-dihydropyrimidin-2-yl)-4-(trifluoromethyl)benzyl]cyclohexane-1-carboxamide] belongs less than 1 nM. As for `O=C(NCc1ccc(C(F)(F)F)c(-c2nc(C(F)(F)F)cc(=O)[nH]2)c1F)C1CCN(c2cccc(C(F)(F)F)c2)CC1` [Example 67, N-{2-fluoro-3-[6-oxo-4-(trifluoromethyl)-1,6-dihydropyrimidin-2-yl]-4-(trifluoromethyl)benzyl}-1-[3-(trifluoromethyl)phenyl]piperidine-4-carboxamide], the IC50 is less than 1 nM. As for `Cc1nc(-c2c(C(F)(F)F)ccc(CNC(=O)[C@H]3CC[C@H](OCc4ccc(F)c(F)c4)CC3)c2F)[nH]c(=O)c1F` [Example 127, trans-4-[(3,4-difluorobenzyl)oxy]-N-[2-fluoro-3-(5-fluoro-4-methyl-6-oxo-1,6-dihydropyrimidin-2-yl)-4-(trifluoromethyl)benzyl]cyclohexane-1-carboxamide], the IC50 was less than 1 nM. Still for that read-out and setting: to `O=C(NCc1ccc(C(F)(F)F)c(-c2nc(C(F)(F)F)cc(=O)[nH]2)c1F)C1CCN(c2ccc(Cl)c(Cl)c2)CC1` [Example 66, 1-(3,4-dichlorophenyl)-N-{2-fluoro-3-[6-oxo-4-(trifluoromethyl)-1,6-dihydropyrimidin-2-yl]-4-(trifluoromethyl)benzyl}piperidine-4-carboxamide] belongs less than 1 nM; to `O=C(NCc1ccc(C(F)(F)F)c(-c2nc(C(F)(F)F)cc(=O)[nH]2)c1F)C1CCN(c2ccccn2)CC1` [Example 19, N-{2-fluoro-3-[6-oxo-4-(trifluoromethyl)-1,6-dihydropyrimidin-2-yl]-4-(trifluoromethyl)benzyl}-1-(pyridin-2-yl)piperidine-4-carboxamide], less than 1 nM. Same read-out and setting: to `Cc1cccc2ccc(N3CCC(C(=O)NCc4ccc(C(F)(F)F)c(-c5nc(C(C)C)cc(=O)[nH]5)c4F)CC3)nc12` [Example 11, N-[2-fluoro-3-(4-isopropyl-6-oxo-1,6-dihydropyrimidin-2-yl)-4-(trifluoromethyl)benzyl]-1-(8-methylquinolin-2-yl)piperidine-4-carboxamide] belongs less than 1 nM; to `Cc1nc(-c2c(C(F)(F)F)ccc(CNC(=O)C3CCN(c4ncc(Cl)cc4F)CC3)c2F)[nH]c(=O)c1F` [Example 52, 1-(5-chloro-3-fluoropyridin-2-yl)-N-[2-fluoro-3-(5-fluoro-4-methyl-6-oxo-1,6-dihydropyrimidin-2-yl)-4-(trifluoromethyl)benzyl]piperidine-4-carboxamide], 15 nM.

The same experiment, now with this note: microsomes of COS-1 cells transfected with human mPGES-1 cDNA; PGH2 1 μM; 4° C., 4 minutes; PGE2 by EIA; read-out: h mPGES1 IC50.
Regarding `Cc1nc(-c2c(C(F)(F)F)ccc(CNC(=O)[C@H]3C[C@H](OCc4cccc(Cl)c4)C3)c2F)[nH]c(=O)c1C` [Example 246, trans-3-[(3-chlorobenzyl)oxy]-N-[3-(4,5-dimethyl-6-oxo-1,6-dihydropyrimidin-2-yl)-2-fluoro-4-(trifluoromethyl)benzyl]cyclobutane-1-carboxamide], the IC50 is less than 1 nM. Still for that read-out and setting: to `CCc1nc(-c2c(C(F)(F)F)ccc(CNC(=O)[C@H]3C[C@H](OCc4cccc(C(F)(F)F)c4)C3)c2F)[nH]c(=O)c1F` [Example 233, trans-N-[3-(4-ethyl-5-fluoro-6-oxo-1,6-dihydropyrimidin-2-yl)-2-fluoro-4-(trifluoromethyl)benzyl]-3-{[3-(trifluoromethyl)benzyl]oxy}cyclobutane-1-carboxamide] belongs less than 1 nM; to `O=c1cc(-c2ccc(C(F)(F)F)cn2)nc(-c2c(C(F)(F)F)ccc(CNS(=O)(=O)c3ccc(-c4ccccc4)cc3)c2F)[nH]1` [Example 271, N-(2-fluoro-3-{6-oxo-4-[5-(trifluoromethyl)pyridin-2-yl]-1,6-dihydropyrimidin-2-yl}-4-(trifluoromethyl)benzyl)-[1,1′-biphenyl]-4-sulfonamide], 76 nM; to `CCc1nc(-c2c(C(F)(F)F)ccc(CNC(=O)[C@H]3C[C@H](OCc4cccc(Cl)c4)C3)c2F)[nH]c(=O)c1F` [Example 230, trans-3-[(3-chlorobenzyl)oxy]-N-[3-(4-ethyl-5-fluoro-6-oxo-1,6-dihydropyrimidin-2-yl)-2-fluoro-4-(trifluoromethyl)benzyl]cyclobutane-1-carboxamide], less than 1 nM. Regarding `CCc1cc(=O)[nH]c(-c2c(C(F)(F)F)ccc(CNC(=O)[C@H]3C[C@H](OCc4cccc(F)c4F)C3)c2F)n1` [Example 206, trans-3-[(2,3-difluorobenzyl)oxy]-N-[3-(4-ethyl-6-oxo-1,6-dihydropyrimidin-2-yl)-2-fluoro-4-(trifluoromethyl)benzyl]cyclobutane-1-carboxamide], the half-inhibitory concentration (IC50) is 15 nM.

With `O=c1[nH]c(-c2c(C(F)(F)F)ccc(CNC(=O)[C@H]3C[C@H](OCc4cccc(Cl)c4)C3)c2F)nc2c1CCC2` [Example 247, trans-3-[(3-chlorobenzyl)oxy]-N-[2-fluoro-3-(4-oxo-4,5,6,7-tetrahydro-3H-cyclopenta[d]pyrimidin-2-yl)-4-(trifluoromethyl)benzyl]cyclobutane-1-carboxamide], the IC50 is less than 1 nM. On the same count and under the same terms, to `O=c1cc(C(F)F)nc(-c2c(C(F)(F)F)ccc(CNC(=O)[C@H]3C[C@H](OCc4cccc(Cl)c4)C3)c2F)[nH]1` [Example 162, trans-3-[(3-chlorobenzyl)oxy]-N-{3-[4-(difluoromethyl)-6-oxo-1,6-dihydropyrimidin-2-yl]-2-fluoro-4-(trifluoromethyl)benzyl}cyclobutane-1-carboxamide] belongs less than 1 nM; to `CCc1cc(=O)[nH]c(-c2c(C(F)(F)F)ccc(CNC(=O)[C@H]3C[C@H](OCc4ccc(Cl)cc4F)C3)c2F)n1` [Example 202, trans-3-[(4-chloro-2-fluorobenzyl)oxy]-N-[3-(4-ethyl-6-oxo-1,6-dihydropyrimidin-2-yl)-2-fluoro-4-(trifluoromethyl)benzyl]cyclobutane-1-carboxamide], less than 1 nM; to `O=c1cc(C(F)(F)F)nc(-c2c(C(F)(F)F)ccc(CNC(=O)[C@H]3C[C@H](OCc4ccc(F)cc4F)C3)c2F)[nH]1` [Example 148, trans-3-[(2,4-difluorobenzyl)oxy]-N-{2-fluoro-3-[6-oxo-4-(trifluoromethyl)-1,6-dihydropyrimidin-2-yl]-4-(trifluoromethyl)benzyl}cyclobutane-1-carboxamide], less than 1 nM. On the same count and under the same terms, then `CCc1cc(=O)[nH]c(-c2c(C(F)(F)F)ccc(CNC(=O)[C@H]3C[C@H](OCc4cccc(Cl)c4)C3)c2F)n1` [Example 196, trans-3-[(3-chlorobenzyl)oxy]-N-[3-(4-ethyl-6-oxo-1,6-dihydropyrimidin-2-yl)-2-fluoro-4-(trifluoromethyl)benzyl]cyclobutane-1-carboxamide], with less than 1 nM.
